Laboratory results from patent publication US20230292776A1, “GAS PHASE TREATMENT OF PRODUCE” (priority 2022, published 2023).

What was measured:
[1] = test system: avocados; test: Durometer shore (firmness, ripening) of treated avocados; type: in vivo, avocado; details: for average increase of shore over uninfected and untreated avocados: Example 22
Experimental: Example 9. The antifungal activity of a range of AITC and carvacrol vapor exposure times was tested against Cg in avocados. To measure the effect of the various treatments on ripening, durometer shore was taken after 7 days of incubation at ambient temperature and high humidity. All samples were wounded by removing the stem and infected by dispensing 1000 Cg spores suspended in 10 μL of water in the wound. The test groups consisted of avocados that were: infected and left untreated on the benchtop; infected and left untreated under a fume hood; exposed to the vapor of 3 mL of AITC in a Petri dish for 24 hours, 48 hours, and 72 hours; and exposed to the vapor of 3 mL of carvacrol in a Petri dish for 72 hours. FIG. 11 quantifies the infection results. […] All exposure times to AITC vapor reduced the incidence of Cg mold compared to the untreated samples. A 24 hour AITC exposure reduced the incidence of Cg mold by 90%. A 48 hour AITC exposure reduced the incidence of Cg mold by 97%. A 72 hour AITC exposure reduced the incidence of Cg mold by 83%.
Example 10. The antifungal activity of a range of AITC vapor exposure times were tested against Cg in avocados. To measure the effect of the various treatments on ripening, durometer shore was taken after 6 days of incubation at ambient temperature and high humidity. All samples were wounded by removing the stem and infected by dispensing 1000 Cg spores suspended in 10 μL of water in each wound. The test groups consisted of avocados that were: infected and left untreated on the benchtop; infected and left untreated in a fume hood; exposed to the vapor of 3 mL of AITC in a Petri dish for 24 hours, 48 hours, and 72 hours. FIG. 13 quantifies the infection results. […] All exposure times to AITC vapor reduced the incidence of Cg mold compared to the untreated samples.
Example 21. The antifungal activity of avocados exposed to AITC vapor and prochloraz was tested against Cg in avocados. To measure the effect of the various treatments on ripening, durometer shore was taken after 5 days of incubation at ambient temperature (about 20° C. to about 25° C.) and high humidity (about 88% relative humidity to about 93% relative humidity). All samples were wounded by removing the stem and infected by dispensing 1000 Cg spores suspended in 10 μL of water in the wound. Exposure to vapor was done by placing the avocados in an airtight container, dispensing AITC onto Whatman filter paper discs, suspending the discs in front of a battery-powered fan, closing the container and incubating the avocados for 30 minutes. After vapor exposure, the avocados were left at ambient temperature, high humidity, and assessed for Cg mold on day 5. Treatment groups consisted of avocados that were: exposed for 30 minutes to the vapor of 125 μL of AITC disposed on a filter paper disc; dipped in a solution of 0.1 g/L of prochloraz and placed to dry on a rack in front of a fan for 30 min; infected and left untreated; and uninfected and untreated. […] To prepare the 0.1 g/L of prochloraz, 10 mg of prochloraz was mixed with 10 mL of ethanol and 90 mL of water. […] A 24 hour AITC exposure reduced the incidence of Cg mold by 90%. […] The mean shore value for the untreated avocados was 28.8 (standard deviation (SD)=10.8). The mean shore value for the infected avocados was 47.3 (SD=11.8). The mean shore value of the positive control, prochloraz treated avocados was 44.3 (SD=14.7). The mean shore value of the AITC treated avocados was 61.1 (SD=10.5).
Durometer Shore Measurement: A Fruit Hardness Tester— HPE III Fff w/Sphere Ø 5.0 mm Test Anvil is used for the measurements. The Operating Procedure is as follows: • 1) At room temperature and 1 atm pressure, switch on the measuring device and press the hull or sleeve against the specimen so that the contact surface of the pressure plate rests on the fruit. […]

[2] = test system: Botrytis cinerea (Bc); test: Antifungal activity of AITC vapor and coating agent against Botrytis cinerea (Bc) in strawberries; type: in vivo; details: Example 17; suspended strawberries; day 5

Structure (SMILES): C=CCN=C=S [AITC, allyl isothiocyanate]
- average increase of durometer shore over untreated avocados ([1]; Example 9, all AITC treatments (3 mL; 24, 48, 72 hours), after 7 days, P value<0.0001): 20.3 shore
- average increase of durometer shore over infected avocados ([1]; Example 10, all AITC treatments (3 mL; 24, 48, 72 hours), after 6 days, P value<0.005): 15.4 shore
- shore higher than the untreated avocados ([1]; Example 21, 125 μL, 30 minutes, after 5 days): more than 30 shore
- mean shore value ([1]; Example 21, Cg-infected avocados, AITC 125 μL 30 minutes, prochloraz 0.1 g/L dip, after 5 days): 61.1 (SD=10.5)
- average increase of shore over uninfected and untreated avocados ([1]; 250 μL, 30 minutes, after 5 days, P value=0.0016): about 10 shore
- average increase of shore over uninfected and untreated avocados ([1]; 500 μL, 30 minutes, after 5 days, P value<0.0001): about 28.5 shore
- average increase of shore over untreated avocados ([1]; Example 23, 500 μL AITC vapor, coating agent 40 g/L dip, after 11 days, P value<0.0001): 22.5 shore
- reduction in incidence of mold versus untreated test group [2]: over 80%
